Results taken from ChEMBL document CHEMBL3779776, “Synthesis and biological evaluation of 2-aroylbenzofurans, rugchalcones A, B and their derivatives as potent anti-inflammatory agents” (Bioorg Med Chem Lett, 2016).

Assays:
RAW264.7 [1] = assay: Antiinflammatory activity in mouse RAW264.7 cells assessed as inhibition of LPS-induced NO production at 10 uM after 18 hrs by Griess assay relative to control; assay type: functional; conditions: RAW264.7, 18 h
RAW264.7 [2] = assay: Antiinflammatory activity in mouse RAW264.7 cells assessed as inhibition of LPS-induced NO production after 18 hrs by Griess assay; assay type: functional, cell-based; conditions: RAW264.7, 18 h
[3] = Cytotoxicity against mouse RAW264.7 cells assessed as cell viability at 10 uM after 24 hrs by MTS assay relative to control; assay type: cell-based; conditions: read-out: Activity
RAW264.7 [4] = assay: Inhibition of LPS-induced iNOS expression in mouse RAW264.7 cells at 10 uM after 18 hrs by Western blot method relative to LPS; assay type: functional
[5] = Cytotoxicity against mouse RAW264.7 cells assessed as cell viability at 1 uM after 24 hrs by MTS assay relative to control; assay type: cell-based; conditions: read-out: Activity
RAW264.7 [6] = assay: Antiinflammatory activity in mouse RAW264.7 cells assessed as inhibition of LPS-induced NO production at 1 uM after 18 hrs by Griess assay relative to control; assay type: functional; conditions: RAW264.7, 18 h

## COc1ccc(C(=O)c2cc3cc(OC)c(OC)cc3o2)cc1
RAW264.7 [1]
  inhibition at 10 µM: 29.8%
RAW264.7 [2]
  IC50: 11.8 µM
[3]
  viability at 24 h, 10 µM: 98.6%
RAW264.7 [4]
  fold change (FC): 0.65
[5]
  viability at 24 h, 1 µM: 105%
RAW264.7 [6]
  inhibition at 1 µM: 9.5%

## COc1ccc(C(=O)c2cc3cc(O)c(O)cc3o2)cc1
RAW264.7 [1]
  inhibition at 10 µM: 96.8%
RAW264.7 [2]
  IC50: 1.9 µM
[3]
  viability at 24 h, 10 µM: 101%
RAW264.7 [4]
  fold change (FC): 0.19
[5]
  viability at 24 h, 1 µM: 95.1%
RAW264.7 [6]
  inhibition at 1 µM: 19.7%

## CNC(=N)NCCC[C@H](N)C(=O)O [TILARGININE]
RAW264.7 [1]
  inhibition at 10 µM: 92.4%
RAW264.7 [2]
  IC50: 2.69 µM
[3]
  viability at 24 h, 10 µM: 97.6%
[5]
  viability at 24 h, 1 µM: 98.6%
RAW264.7 [6]
  inhibition at 1 µM: 20.9%

## COc1cc2oc(C(=O)c3ccc(O)cc3)cc2cc1O
RAW264.7 [1]
  inhibition at 10 µM: 99.3%
RAW264.7 [2]
  IC50: 4.13 µM
[3]
  viability at 24 h, 10 µM: 93.1%
RAW264.7 [4]
  fold change (FC): 0.26
[5]
  viability at 24 h, 1 µM: 97.9%
RAW264.7 [6]
  inhibition at 1 µM: 0%

## COc1cc2cc(C(=O)c3ccc(O)cc3)oc2cc1O
RAW264.7 [1]
  inhibition at 10 µM: 99.6%
RAW264.7 [2]
  IC50: 0.57 µM
[3]
  viability at 24 h, 10 µM: 95.9%
RAW264.7 [4]
  fold change (FC): 0.18
[5]
  viability at 24 h, 1 µM: 98.1%
RAW264.7 [6]
  inhibition at 1 µM: 54.2%

## COc1cc2cc(C(=O)c3ccc(O)cc3)oc2cc1OC
RAW264.7 [1]
  inhibition at 10 µM: 25.8%
RAW264.7 [2]
  IC50: 10.4 µM
[3]
  viability at 24 h, 10 µM: 102%
RAW264.7 [4]
  fold change (FC): 0.46
[5]
  viability at 24 h, 1 µM: 106%
RAW264.7 [6]
  inhibition at 1 µM: 8.6%

## COc1ccc(C(=O)c2cc3cc(O)c(OC)cc3o2)cc1
RAW264.7 [1]
  inhibition at 10 µM: 43%
RAW264.7 [2]
  IC50: 10.8 µM
[3]
  viability at 24 h, 10 µM: 100%
RAW264.7 [4]
  fold change (FC): 0.52
[5]
  viability at 24 h, 1 µM: 98.1%
RAW264.7 [6]
  inhibition at 1 µM: 16.2%

## COc1ccc(C(=O)c2cc3cc(OC)c(O)cc3o2)cc1
RAW264.7 [1]
  inhibition at 10 µM: 29.7%
RAW264.7 [2]
  IC50: 13.3 µM
[3]
  viability at 24 h, 10 µM: 91.8%
RAW264.7 [4]
  fold change (FC): 0.77
[5]
  viability at 24 h, 1 µM: 93.2%
RAW264.7 [6]
  inhibition at 1 µM: 7.8%

## O=C(c1ccc(O)cc1)c1cc2cc(O)c(O)cc2o1
RAW264.7 [1]
  inhibition at 10 µM: 74.3%
RAW264.7 [2]
  IC50: 0.99 µM
[3]
  viability at 24 h, 10 µM: 100%
RAW264.7 [4]
  fold change (FC): 0.36
[5]
  viability at 24 h, 1 µM: 106%
RAW264.7 [6]
  inhibition at 1 µM: 42.9%
